Structures are written as SMILES. Where a SMILES comes first, the peptide text is derived from it.

This experiment concerns R. oryzae UCP1295. Description: Screening of the Pandemic Response Box library at 5 µM. The class given is cell-based, Rhizopus oryzae. To be noted: 48 h, Table S1, mean of the four values. Here is the method:
Rhizopus oryzae UCP is the most prevalent Mucorales species in human infections and was used as a reference strain to screen the Pandemic Response Box® library. Screening was performed according to Rollin-Pinheiro and colleagues. Each compound was diluted in RPMI 1640 medium (Sigma Chemical Co., St. Louis, MO, USA), supplemented with 2% glucose and buffered with 3-(N-morpholino) propanesulfonic acid (MOPS) (Sigma Chemical Co., St. Louis, MO, USA) (0.165 mol/L, pH 7.2, from here on referred to as ‘supplemented RPMI’) to reach 5 μM in 96-well microtiter plates. Posaconazole (5 μM) and supplemented RPMI containing 1% DMSO were used as controls (both from Sigma Chemical Co., St. Louis, MO, USA). Conidia (2 × 10^5/mL) were added and incubated for 48 h at 37 °C in a 5% CO2 atmosphere. […] An inhibition of at least 60% was defined as the cut-off to select the promising drugs with antifungal activity against the Rhizopus species.
As to `COc1cc(Cc2cnc(N)nc2N)cc(OC)c1OC` [MMV000028], the “% of growth inhibition, Mean” value is -4.5%. As to `CCc1cc(Nc2cc(=O)n(CCN3CCN(C(=O)c4ccccc4)CC3)c(=O)[nH]2)ccc1C` [MMV1634383], the “% of growth inhibition, Mean” value is -3.9%. As to `Fc1ccc2c(/C=C/c3cccnc3)c[nH]c2c1` [MMV1578889], the “% of growth inhibition, Mean” value is -15.1%. Regarding `CN(C)CCCOc1ccc(-c2ccc3ncc4c(c3c2)n(C2CCOCC2)c(=O)n4C)cn1` [MMV1580483], the “% of growth inhibition, Mean” value is reported as -5.4%.

Regarding `CC(C)c1cc2c(cc1S(=O)(=O)O)[C@@]1(C)CCC[C@@](C)(C(=O)O)[C@@H]1CC2` [MMV1633675], the “% of growth inhibition, Mean” value is reported as -25.5%. With `CCOc1ccc(/C=N/NC(=O)C2CC2c2ccc(C(C)(C)C)cc2)cc1OCC` (centres unmarked) [MMV1634398], the “% of growth inhibition, Mean” value was 4.7%. As for `N#C/C(=C1/SC[C@@H](c2ccc(Cl)cc2Cl)S1)n1ccnc1` [MMV1782224], the “% of growth inhibition, Mean” value was -14.5%. With `Cn1c2ccccc2c(=O)c2c(O)cccc21` [MMV1580500] the figure was -3.0%; with `CC(N)C(=O)NC(CCCCN)C(=O)NC(CCCNC(=N)N)C(=O)NC(Cc1c[nH]cn1)C(=O)NC(Cc1c[nH]cn1)C(=O)NCC(=O)NC(Cc1ccc(O)cc1)C(=O)NC(CCCCN)C(=O)NC(CCCNC(=N)N)C(=O)NC(CCCCN)C(=O)NC(Cc1ccccc1)C(=O)NC(Cc1c[nH]cn1)C(N)=O` (centres unmarked) [MMV1579849] (H-AKRHHGYKRKFH-NH2; configuration not given here), -25.8%; with `O=C(CSc1nnc(Br)n1-c1ccc(C2CC2)c2ccccc12)Nc1ccc(C(=O)O)cc1Cl` [MMV1782213], -4.3%. The figure for `CC(C)=CCC/C(C)=C\CNCCNC1C2CC3CC(C2)CC1C3` (centres unmarked) [MMV687273] is -3.3%; for `COc1cccc(N2CCN(C3=Nc4c(F)cccc4[C@H](CC(=O)O)N3c3cc(C(F)(F)F)ccc3OC)CC2)c1` [MMV690653] it is -6.7%; for `COc1ccc2sc3c(c2c1)NC(C)CNC3=O` (centres unmarked) [MMV1782115] it is -2.6%. For the compound `COc1ccc(C[C@@H](C)[C@@H](C)Cc2ccc(OC)c(OC)c2)cc1OC` [MMV1581036], the “% of growth inhibition, Mean” value is reported as -8.8%. As to `O=C(NO)C1(CS(=O)(=O)c2ccc(Oc3ccc(Cl)cc3)cc2)CCOCC1` [MMV690706], the “% of growth inhibition, Mean” value is given as -11.0%.

On to `CC(C)Cn1c(=O)n(C)c(=O)c2c(-c3cncn3C)n(Cc3cccc4ccccc34)nc21` [MMV1581559], for which the “% of growth inhibition, Mean” value is -18.9%. For the compound `CC(C)(C)c1cccc(-c2nc3cc(C(=N)N)ccc3[nH]2)c1O` [MMV1581548], the “% of growth inhibition, Mean” value was -15.8%. With `Nc1nc2c(ncn2COCCO)c(=O)[nH]1` [MMV001961] the figure was -10.2%. On to `COc1ccc(SC(=O)N[C@H](CCC(=O)O)C(=O)O)cc1` [MMV1580846], for which the “% of growth inhibition, Mean” value is listed as -33.5%.

Turning to `Cc1ccn2c(C(=O)NCc3ccccc3)c(C)nc2c1` [MMV1579847], the “% of growth inhibition, Mean” value is -7.2%.

For `O=C(O)CSc1cc(NS(=O)(=O)c2cccc3cccnc23)c2ccccc2c1O` [MMV218827], the “% of growth inhibition, Mean” value was -3.2%. The figure for `Cc1c[nH]c(=O)nc1NCc1ccccc1` [MMV1582489] is -18.8%; for `CC(C)(C)c1cc(C(=O)/C(C#N)=N/Nc2cccc(Cl)c2)no1` [MMV1578571] it is -7.2%. Consider `O=C(NCCN1CCCCC1)c1cccc(C(F)(F)F)c1` [MMV1633964], for which the “% of growth inhibition, Mean” value is -2.0%. With `CSc1ccc2c(c1)C(N1CCN(C)CC1)Cc1ccccc1S2` (centres unmarked) [MMV002505] the figure was 8.0%. With `[N-]=[N+]=N[C@H]1C[C@H](n2ccc(=O)[nH]c2=O)O[C@@H]1CO` [MMV1593520], the “% of growth inhibition, Mean” value amounted to 4.5%. As to `CC(C)(C)c1cc(CCC(=O)N2CCC2)cc(C(C)(C)C)c1O` [MMV1229204], the “% of growth inhibition, Mean” value is recorded as -11.2%. On to `NCc1ccc(S(N)(=O)=O)cc1` [MMV002665], for which the “% of growth inhibition, Mean” value was -2.2%. As for `O=C(Cn1cnc2ccccc2c1=O)Nc1ccccc1` [MMV1578891], the “% of growth inhibition, Mean” value is recorded as -16.0%. For the compound `CC1(C)C[C@H]1C(=O)N/C(=C\CCCCSC[C@@H](N)C(=O)O)C(=O)O.[Na+]` [MMV1613559], the “% of growth inhibition, Mean” value was -16.6%. With `COc1cc(Cc2cnc(N)nc2N)c2c(c1OC)OC(C1CC1)C=C2` (centres unmarked) [MMV1613563], the “% of growth inhibition, Mean” value is -6.9%. As to `C(=C\c1nc2ccccc2[nH]1)/c1ccc2c(c1)OCO2` [MMV1582495], the “% of growth inhibition, Mean” value is -6.2%.

In the case of `CCc1nc2ccccn2c1C(=O)NCc1ccccc1` [MMV1663457], the “% of growth inhibition, Mean” value is recorded as -0.4%. The figure for `CCOC(=O)/C=C/[C@H](C[C@@H]1CCNC1=O)NC(=O)[C@@H](CC(=O)[C@@H](NC(=O)c1cc(C)on1)C(C)C)Cc1ccc(F)cc1` [MMV1580491] is -18.6%; for `CCc1cc(Cc2cnc(N)nc2N)cc2c1N(C)CCC2C` (centres unmarked) [MMV1582490] it is -3.0%; for `CC(=O)N1CCN(c2ccc(OC[C@@H]3CO[C@@](Cn4ccnc4)(c4ccc(Cl)cc4Cl)O3)cc2)CC1` [MMV637533] it is -5.2%. With `CC#C[C@]1(O)CC[C@H]2[C@@H]3CCC4=CC(=O)CCC4=C3[C@@H](c3ccc(N(C)C)cc3)C[C@@]21C` [MMV003297] the figure was -3.7%; with `CNc1nc(=O)[nH]cc1F` [MMV1782388], -27.5%. The figure for `COc1cc(C(C(=O)NC2CCCCC2)N(C(=O)Cc2c[nH]c3ccccc23)c2ccc(C(C)C)cc2)cc(OC)c1OC` (centres unmarked) [MMV1593544] is -2.6%. As for `O=C(O)c1sccc1S(=O)(=O)n1ccc2cc(Br)ccc21` [MMV1580855], the “% of growth inhibition, Mean” value is recorded as -1.0%. Consider `COc1c(F)c(F)cc2c(=O)c(C(=O)O)cn(C3CC3)c12` [MMV1480967], for which the “% of growth inhibition, Mean” value is -20.4%. For the compound `Cc1nc(Nc2ccc(F)cc2)nc(N2CCc3ccccc3C2C)c1C` (centres unmarked) [MMV030787], the “% of growth inhibition, Mean” value is given as -5.0%. For the compound `COC(=O)Nc1nc2ccc([S+]([O-])c3ccccc3)cc2[nH]1` (centres unmarked) [MMV002565], the “% of growth inhibition, Mean” value is listed as -39.5%. In the case of `COc1cc(C)c2c(Oc3cccc(C(F)(F)F)c3)c(OC)cc(NC(C)CCCN)c2n1.O=C(O)CCC(=O)O` (centres unmarked) [MMV000043], the “% of growth inhibition, Mean” value was -36.7%. On to `COc1ccc(SCC(=O)N2c3ccccc3Sc3ccccc32)cc1` [MMV1578573], for which the “% of growth inhibition, Mean” value was -3.7%. For the compound `CN(C)CC(=O)Nc1ccc2[nH]c(=O)c3ccccc3c2c1` [MMV1580480], the “% of growth inhibition, Mean” value was -3.9%. With `CC[C@H](NC(=O)[C@H](C)NC)C(=O)N1C[C@@H](O)C[C@H]1Cc1c(-c2[nH]c3cc(F)ccc3c2C[C@@H]2C[C@H](O)CN2C(=O)[C@H](CC)NC(=O)[C@H](C)NC)[nH]c2cc(F)ccc12` [MMV1557856] the figure was 3.0%.

For `CC(C)Nc1nc2cc(Cl)c(Cl)cc2n1[C@H]1O[C@@H](CO)[C@H](O)[C@@H]1O` [MMV1593521], the “% of growth inhibition, Mean” value is -13.4%.

Turning to `O=C(O)c1cc(-c2ccc(Br)cc2)nc2ccc(Cl)cc12` [MMV247764], the “% of growth inhibition, Mean” value is listed as -8.6%. With `N[C@H]1CCC[C@H]1C(=O)O` [MMV1634361] the figure was -8.8%.

The values are drawn from article PMC9959553, “Promising Antifungal Molecules against Mucormycosis Agents Identified from Pandemic Response Box®: In Vitro and In Silico Analyses” (Journal of Fungi, 2023).
